The text below walks through data of PMC9851200, “Multiparameter phenotypic screening for endogenous TFEB and TFE3 translocation identifies novel chemical series modulating lysosome function” (Autophagy, 2022).

For experiment [1], the target named is T1, cellular kinases of SH-SY5Y cells (Homo sapiens, UniProt Q14004).
T1 construct: endogenous in cells; host or cells: SH-SY5Y
The experiment can be described thus: biochemical. The experiment is classed as binding. The following applies: read-out: KiNativ in-cell binding, % Inhibition, CDK13/CHED. The source says:
(§1) As KINOMEscan is an in vitro assay, and as different cell types have variable kinase expression profiles we sought to determine the kinase binding profile in our SH-SY5Y TFEB-relocalization cell model. […] Bound kinases were pulled down and analyzed by mass spectrometry to determine the in situ kinase binding profile for each compound.

Experiment [2] concerns the target T2, cellular kinases of SH-SY5Y cells (Homo sapiens, UniProt P51957).
T2 construct: endogenous in cells; host or cells: SH-SY5Y
The experiment can be described thus: biochemical. The experiment is classed as binding. The following applies: 2µM; SH-SY5Y cells; Labeling Site Lys2; DLKTQNVFLTR; read-out: KiNativ in-cell binding, % Inhibition, NEK4.
Excerpt: as §1

For experiment [3], the target named is cellular kinases of SH-SY5Y cells (Homo sapiens, UniProt Q16566). The experiment can be described thus: biochemical. The settings on record: 2µM, SH-SY5Y cells. The experiment is classed as binding.
Excerpt: as §1

The target in experiment [4] is cellular kinases of SH-SY5Y cells (Homo sapiens, UniProt Q00534). The experiment can be described thus: biochemical. The experiment is classed as binding. The settings on record: 2µM; SH-SY5Y cells; labeling site Lys2; peptide DLKPQNILVTSSGQIK
Excerpt: as §1

The target of experiment [5] is cellular kinases of SH-SY5Y cells (Homo sapiens, UniProt P42345). The experiment can be described thus: biochemical. The experiment is classed as binding. The following applies: 2µM; SH-SY5Y cells; Labeling Site ATP; IQSIAPSLQVITSKQRPR; read-out: KiNativ in-cell binding, % Inhibition, MTOR.
Excerpt: as §1

Experiment [6] deals with T3, cellular kinases of SH-SY5Y cells (Homo sapiens, UniProt Q8IZL9).
T3 construct: endogenous in cells; host or cells: SH-SY5Y
The experiment can be described thus: biochemical. The experiment is classed as binding. The following applies: 2µM; SH-SY5Y cells; Labeling Site Lys2; DLKPANLLISASGQLK; read-out: KiNativ in-cell binding, % Inhibition, CDK20.
Excerpt: as §1

The target in experiment [7] is cellular kinases of SH-SY5Y cells (Homo sapiens, UniProt Q5S007). The experiment can be described thus: biochemical. The experiment is classed as binding. The settings on record: 2µM; SH-SY5Y cells; Labeling Site Lys2; DLKPHNVLLFTLYPNAAIIAK; read-out: KiNativ in-cell binding, % Inhibition, LRRK2.
Excerpt: as §1

In experiment [8] the target is cellular kinases of SH-SY5Y cells (Homo sapiens, UniProt Q96L34). The experiment can be described thus: biochemical. The experiment is classed as binding. The following applies: 2µM, SH-SY5Y cells, read-out: KiNativ in-cell binding, % Inhibition, MARK4.
Excerpt: as §1

Experiment [9] deals with T4, cellular kinases of SH-SY5Y cells (Homo sapiens, UniProt O15021).
T4 construct: endogenous in cells; host or cells: SH-SY5Y
The experiment can be described thus: biochemical. The experiment is classed as binding. The settings on record: 2µM; SH-SY5Y cells; Labeling Site Lys2; DLKPDNLLVTSMGHIK; read-out: KiNativ in-cell binding, % Inhibition, MAST4.
Excerpt: as §1

For experiment [10], the target named is T5, cellular kinases of SH-SY5Y cells (Homo sapiens, UniProt Q9Y2I7).
T5 construct: endogenous in cells; host or cells: SH-SY5Y
The experiment can be described thus: biochemical. The experiment is classed as binding. The settings on record: 2µM; SH-SY5Y cells; Labeling Site ATP; GGKSGAAFYATEDDRFILK; read-out: KiNativ in-cell binding, % Inhibition, PIKFYVE.
Excerpt: as §1

Experiment [11] addresses cellular kinases of SH-SY5Y cells (Homo sapiens, UniProt P53350). The experiment can be described thus: biochemical. The experiment is classed as binding. The settings on record: 2µM, SH-SY5Y cells, read-out: KiNativ in-cell binding, % Inhibition, PLK1.
Excerpt: as §1

The target of experiment [12] is cellular kinases of SH-SY5Y cells (Homo sapiens, UniProt P07948). The experiment can be described thus: biochemical. The experiment is classed as binding. The following applies: 2µM; SH-SY5Y cells; labeling site Lys1; peptide VAVKTLKPGTMSVQAFLEEANLMK
Excerpt: as §1

In experiment [13] the target is cellular kinases of SH-SY5Y cells (Homo sapiens, UniProt Q13464). The experiment can be described thus: biochemical. The experiment is classed as binding. The following applies: 2µM; SH-SY5Y cells; Labeling Site Other; KLQLELNQER; read-out: KiNativ in-cell binding, % Inhibition, ROCK1.
Excerpt: as §1

The target of experiment [14] is T6, cellular kinases of SH-SY5Y cells (Homo sapiens, UniProt O14920).
T6 construct: endogenous in cells; host or cells: SH-SY5Y
The experiment can be described thus: biochemical. The experiment is classed as binding. The settings on record: 2µM; SH-SY5Y cells; Labeling Site Lys2; DLKPENIVLQQGEQR; read-out: KiNativ in-cell binding, % Inhibition, IKBKB/IKKb.
Excerpt: as §1

For another experiment, the system named is TFE3. The experiment can be described thus: TFE3 nuclear translocation in iPSC-derived i3Neurons. The experiment is classed as cell-based, human. The following applies: day 10. On the procedure:
hiPSCs were maintained under feeder-free conditions in a 37°C, 5% CO2 tissue culture incubator on tissue culture treated dishes coated with growth factor-reduced Matrigel (Corning, 354,277) and fed every 1–2 days with Essential 8 medium (Life Technologies, A1517001), as needed. Accutase ([…] Technologies, 07920) was used to enzymatically dissociate hiPSCs into single cells, and 0.5 mM EDTA was used for routine dissociation to maintain colony growth. To promote cell survival during passaging, cells were passaged with the ROCK/p160-Rho-associated coiled coil kinase inhibitor Y-27632 ([…]; Selleckchem, S1049). hiPSC-derived i^3Neurons were induced and differentiated according to Fernandopulle et al. and replated on high-content 96-well dishes (PerkinElmer, CellCarrierUltra-96) by day 3. […]
After the required compound incubation, media was removed from the wells and the cells were fixed in 4% paraformaldehyde (PFA; ThermoFisher Scientific/Pierce, 28,908) for 20 min. […] The Harmony image analysis software (Perkin Elmer) was used to identify nuclei TFEB or TFE3 positive nuclei, expressed as a percentage of total cell number (See Figure S2 and S3 for analysis protocols). Mean values and standard deviation of DMSO control wells on the plate were calculated. […]

Each structure is given as a SMILES string. Like-named read-outs stand apart in the source and are kept apart here.

Sequence of cellular kinases of SH-SY5Y cells (Homo sapiens, UniProt Q96L34) (Q96L34 whole entry): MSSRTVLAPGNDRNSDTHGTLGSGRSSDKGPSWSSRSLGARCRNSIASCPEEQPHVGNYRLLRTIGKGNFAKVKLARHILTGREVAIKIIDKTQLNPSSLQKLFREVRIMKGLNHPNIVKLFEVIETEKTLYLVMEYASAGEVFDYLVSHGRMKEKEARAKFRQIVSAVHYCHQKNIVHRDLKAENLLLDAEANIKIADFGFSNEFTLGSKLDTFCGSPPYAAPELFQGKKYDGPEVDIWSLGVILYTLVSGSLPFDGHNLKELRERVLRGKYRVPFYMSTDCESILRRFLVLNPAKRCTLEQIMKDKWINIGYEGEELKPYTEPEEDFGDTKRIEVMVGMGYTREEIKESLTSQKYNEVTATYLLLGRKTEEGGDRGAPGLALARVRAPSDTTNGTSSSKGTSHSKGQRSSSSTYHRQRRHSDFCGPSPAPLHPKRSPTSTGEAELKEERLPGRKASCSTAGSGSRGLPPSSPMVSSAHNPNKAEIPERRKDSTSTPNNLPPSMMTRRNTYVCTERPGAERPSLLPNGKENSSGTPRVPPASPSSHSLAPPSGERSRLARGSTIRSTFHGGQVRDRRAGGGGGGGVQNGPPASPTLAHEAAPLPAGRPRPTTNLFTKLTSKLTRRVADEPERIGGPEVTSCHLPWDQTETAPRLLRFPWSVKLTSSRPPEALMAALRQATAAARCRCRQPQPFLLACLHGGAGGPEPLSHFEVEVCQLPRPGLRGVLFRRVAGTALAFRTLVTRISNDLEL
Sequence of cellular kinases of SH-SY5Y cells (Homo sapiens, UniProt P53350) (P53350 whole entry): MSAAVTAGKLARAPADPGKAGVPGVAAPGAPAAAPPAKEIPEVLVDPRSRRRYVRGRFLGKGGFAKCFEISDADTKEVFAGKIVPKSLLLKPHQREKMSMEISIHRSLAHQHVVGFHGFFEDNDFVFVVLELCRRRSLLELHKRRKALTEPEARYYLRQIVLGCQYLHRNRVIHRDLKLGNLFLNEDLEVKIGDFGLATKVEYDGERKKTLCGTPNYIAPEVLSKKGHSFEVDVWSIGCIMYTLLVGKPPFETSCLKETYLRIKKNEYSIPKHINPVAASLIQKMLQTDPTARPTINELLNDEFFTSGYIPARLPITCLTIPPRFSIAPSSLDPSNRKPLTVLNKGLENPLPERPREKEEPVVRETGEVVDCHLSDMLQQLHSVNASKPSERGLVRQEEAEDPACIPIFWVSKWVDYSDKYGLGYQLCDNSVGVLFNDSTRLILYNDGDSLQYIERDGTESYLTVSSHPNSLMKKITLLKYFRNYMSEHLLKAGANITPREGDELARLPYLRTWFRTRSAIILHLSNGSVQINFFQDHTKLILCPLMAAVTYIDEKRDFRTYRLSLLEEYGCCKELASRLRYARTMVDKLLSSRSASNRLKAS
Sequence of cellular kinases of SH-SY5Y cells (Homo sapiens, UniProt Q16566) (Q16566 whole entry): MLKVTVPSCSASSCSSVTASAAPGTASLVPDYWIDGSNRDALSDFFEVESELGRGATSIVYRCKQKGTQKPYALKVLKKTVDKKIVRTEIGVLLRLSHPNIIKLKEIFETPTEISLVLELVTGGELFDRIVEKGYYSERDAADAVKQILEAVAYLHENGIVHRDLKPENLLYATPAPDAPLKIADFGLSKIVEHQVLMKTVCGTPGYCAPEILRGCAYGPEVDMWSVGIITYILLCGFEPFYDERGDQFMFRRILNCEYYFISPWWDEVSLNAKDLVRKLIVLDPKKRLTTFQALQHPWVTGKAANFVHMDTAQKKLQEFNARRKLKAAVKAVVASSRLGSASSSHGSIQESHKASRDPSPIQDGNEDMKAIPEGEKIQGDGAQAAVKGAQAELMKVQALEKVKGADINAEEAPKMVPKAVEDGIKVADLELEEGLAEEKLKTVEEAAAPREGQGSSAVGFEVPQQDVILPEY
Sequence of cellular kinases of SH-SY5Y cells (Homo sapiens, UniProt Q00534) (Q00534 whole entry): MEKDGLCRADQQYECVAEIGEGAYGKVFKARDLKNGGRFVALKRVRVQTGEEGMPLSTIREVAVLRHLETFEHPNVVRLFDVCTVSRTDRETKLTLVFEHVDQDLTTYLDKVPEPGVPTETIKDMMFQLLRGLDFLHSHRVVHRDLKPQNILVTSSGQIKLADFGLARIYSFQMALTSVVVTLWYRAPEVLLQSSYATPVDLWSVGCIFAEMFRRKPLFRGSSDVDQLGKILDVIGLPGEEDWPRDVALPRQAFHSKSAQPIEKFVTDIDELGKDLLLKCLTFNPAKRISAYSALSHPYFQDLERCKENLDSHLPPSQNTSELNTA
T2 sequence (P51957 whole entry): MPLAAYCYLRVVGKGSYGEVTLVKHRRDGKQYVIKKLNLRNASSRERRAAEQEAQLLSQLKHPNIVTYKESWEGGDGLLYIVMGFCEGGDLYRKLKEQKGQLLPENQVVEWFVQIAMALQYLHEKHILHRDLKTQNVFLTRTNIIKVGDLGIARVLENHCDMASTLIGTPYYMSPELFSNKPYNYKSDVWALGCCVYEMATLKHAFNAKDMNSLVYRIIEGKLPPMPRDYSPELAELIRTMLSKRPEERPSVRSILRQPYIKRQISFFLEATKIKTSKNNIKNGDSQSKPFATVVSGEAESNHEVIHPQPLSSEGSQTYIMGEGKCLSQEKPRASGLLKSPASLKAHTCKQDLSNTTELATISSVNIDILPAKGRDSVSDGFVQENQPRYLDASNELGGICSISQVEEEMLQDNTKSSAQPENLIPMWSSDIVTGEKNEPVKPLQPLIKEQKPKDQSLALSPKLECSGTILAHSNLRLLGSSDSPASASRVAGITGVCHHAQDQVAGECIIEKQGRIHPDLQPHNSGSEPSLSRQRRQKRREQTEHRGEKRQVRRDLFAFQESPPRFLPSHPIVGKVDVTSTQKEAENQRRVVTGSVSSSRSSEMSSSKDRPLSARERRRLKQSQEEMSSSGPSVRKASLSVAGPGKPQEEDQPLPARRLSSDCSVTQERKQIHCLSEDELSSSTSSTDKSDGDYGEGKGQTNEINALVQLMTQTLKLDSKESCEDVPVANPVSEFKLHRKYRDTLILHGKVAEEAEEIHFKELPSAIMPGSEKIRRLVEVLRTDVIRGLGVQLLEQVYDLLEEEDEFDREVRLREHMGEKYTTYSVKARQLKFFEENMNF
T1 sequence (Q14004 whole entry): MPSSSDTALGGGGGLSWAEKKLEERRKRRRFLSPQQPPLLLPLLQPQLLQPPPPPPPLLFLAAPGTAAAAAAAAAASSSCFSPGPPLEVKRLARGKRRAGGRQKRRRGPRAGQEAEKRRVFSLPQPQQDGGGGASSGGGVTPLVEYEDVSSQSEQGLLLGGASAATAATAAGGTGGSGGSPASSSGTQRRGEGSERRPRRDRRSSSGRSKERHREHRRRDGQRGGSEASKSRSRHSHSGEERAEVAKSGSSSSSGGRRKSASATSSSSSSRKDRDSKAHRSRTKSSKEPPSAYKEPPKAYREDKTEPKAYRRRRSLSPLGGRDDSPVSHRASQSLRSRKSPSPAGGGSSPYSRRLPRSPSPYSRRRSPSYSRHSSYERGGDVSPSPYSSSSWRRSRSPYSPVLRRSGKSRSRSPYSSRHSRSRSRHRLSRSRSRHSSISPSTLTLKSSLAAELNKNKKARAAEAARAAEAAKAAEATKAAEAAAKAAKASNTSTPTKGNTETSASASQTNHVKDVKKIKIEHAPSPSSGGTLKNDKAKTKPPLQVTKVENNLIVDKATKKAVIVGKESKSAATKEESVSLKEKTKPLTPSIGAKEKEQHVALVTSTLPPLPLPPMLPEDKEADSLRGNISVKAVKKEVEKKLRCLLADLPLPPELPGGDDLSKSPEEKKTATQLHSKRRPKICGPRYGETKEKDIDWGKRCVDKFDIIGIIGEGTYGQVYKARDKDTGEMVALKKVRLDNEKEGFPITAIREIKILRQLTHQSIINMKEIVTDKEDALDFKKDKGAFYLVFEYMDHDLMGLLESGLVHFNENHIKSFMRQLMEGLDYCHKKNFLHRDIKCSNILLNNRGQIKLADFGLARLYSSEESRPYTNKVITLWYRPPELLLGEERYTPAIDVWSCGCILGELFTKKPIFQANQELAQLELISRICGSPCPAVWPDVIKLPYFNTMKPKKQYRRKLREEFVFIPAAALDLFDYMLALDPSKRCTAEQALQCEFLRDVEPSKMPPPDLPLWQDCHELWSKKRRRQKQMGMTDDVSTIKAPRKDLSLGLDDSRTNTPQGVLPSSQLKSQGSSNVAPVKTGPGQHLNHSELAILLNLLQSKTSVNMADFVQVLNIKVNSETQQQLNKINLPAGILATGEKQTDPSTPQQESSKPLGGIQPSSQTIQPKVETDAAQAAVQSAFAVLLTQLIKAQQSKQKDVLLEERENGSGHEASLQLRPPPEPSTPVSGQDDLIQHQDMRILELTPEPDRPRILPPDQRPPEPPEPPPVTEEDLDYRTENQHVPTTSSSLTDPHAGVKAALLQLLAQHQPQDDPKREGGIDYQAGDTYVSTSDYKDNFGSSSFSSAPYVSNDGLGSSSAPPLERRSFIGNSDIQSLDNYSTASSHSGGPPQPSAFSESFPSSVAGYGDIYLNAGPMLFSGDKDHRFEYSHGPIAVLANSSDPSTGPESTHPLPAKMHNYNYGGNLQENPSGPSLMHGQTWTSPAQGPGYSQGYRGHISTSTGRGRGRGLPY
Sequence of cellular kinases of SH-SY5Y cells (Homo sapiens, UniProt P07948) (P07948 whole entry): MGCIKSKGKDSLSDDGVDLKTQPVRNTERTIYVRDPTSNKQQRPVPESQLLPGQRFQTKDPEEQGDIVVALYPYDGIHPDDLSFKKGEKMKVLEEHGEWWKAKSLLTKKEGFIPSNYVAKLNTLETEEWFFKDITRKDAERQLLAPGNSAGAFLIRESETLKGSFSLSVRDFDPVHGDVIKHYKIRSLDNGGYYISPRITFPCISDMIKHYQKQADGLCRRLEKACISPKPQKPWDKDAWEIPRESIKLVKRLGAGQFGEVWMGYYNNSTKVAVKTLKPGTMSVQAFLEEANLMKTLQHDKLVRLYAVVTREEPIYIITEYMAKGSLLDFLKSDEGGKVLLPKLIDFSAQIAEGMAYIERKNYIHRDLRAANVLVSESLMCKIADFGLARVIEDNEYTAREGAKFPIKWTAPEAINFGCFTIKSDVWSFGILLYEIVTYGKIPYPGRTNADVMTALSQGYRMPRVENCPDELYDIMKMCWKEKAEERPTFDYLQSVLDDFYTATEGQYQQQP

For the compound `Cc1cccc(-c2nc(Nc3ccc4ncsc4c3)c3ccccc3n2)n1` [NK140], the inhibition at 2 µM was -3.7% in [1]; -36% in experiment [2]; 18.4% in experiment [5]; 9.5% in [6]; 6% in [7]; 7.2% in experiment [8] (Labeling Site Lys1, EVAIKIIDKTQLNPSSLQK). The inhibition at 2 µM in experiment [8] (Labeling Site Lys2, DLKAENLLLDAEANIK) came out at 11.5%; in experiment [9], 27.2%; in [10], 15.6%; in experiment [11] (Labeling Site Lys1, CFEISDADTKEVFAGKIVPK), 26%; in experiment [11] (Labeling Site Lys2, DLKLGNLFLNEDLEVK) it was 9%; in experiment [13], 1.3%. Further, in experiment [14], the inhibition at 2 µM is -43%. The “KiNativ in-cell binding, CaMK4” value in experiment [3] (labeling site Lys1, peptide GTQKPYALKVLK) is recorded as -10.9; in experiment [3] (labeling site Lys2, peptide DLKPENLLYATPAPDAPLK) it was -28.9. For the same compound, in [4], the “KiNativ in-cell binding, CDK6” value is -30.7. In addition, in [12], the “KiNativ in-cell binding, LYN” value is reported as -32.9. Also, the “Nuclear translocation of TFE3 in i3Neurons (in words)” value in the experiment with TFE3 is “trend toward upregulation of TFE3 translocation”.
